In article PMC4132908, “Genome-wide annotation and functional identification of aphid GLUT-like sugar transporters” (BMC Genomics, 2014):

Biological target: T1, ApST4 (A. pisum sugar transporter 4) (Acyrthosiphon pisum, UniProt A0A8R2H6Y5)
T1 sequence (A0A8R2H6Y5 64-552): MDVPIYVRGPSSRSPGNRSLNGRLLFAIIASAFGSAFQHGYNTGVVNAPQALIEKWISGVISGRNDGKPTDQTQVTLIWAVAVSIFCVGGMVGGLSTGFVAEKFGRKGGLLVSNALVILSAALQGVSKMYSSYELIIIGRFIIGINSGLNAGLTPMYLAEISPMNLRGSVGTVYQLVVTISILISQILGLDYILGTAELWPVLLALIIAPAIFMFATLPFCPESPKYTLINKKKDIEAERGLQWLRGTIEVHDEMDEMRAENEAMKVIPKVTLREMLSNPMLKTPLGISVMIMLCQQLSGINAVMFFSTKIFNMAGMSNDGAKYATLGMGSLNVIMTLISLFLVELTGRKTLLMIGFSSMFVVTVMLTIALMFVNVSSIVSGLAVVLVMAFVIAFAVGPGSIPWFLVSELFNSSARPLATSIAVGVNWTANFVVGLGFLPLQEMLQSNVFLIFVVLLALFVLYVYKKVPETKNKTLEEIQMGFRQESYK
Assay: competition with […]-fructose uptake in whole yeast cells
Assay type: cell-based
Settings: 50 mM 14C-fructose; 100 mM unlabelled competitor; pH 7.0; 30 °C; 10 min

SMILES	% reduction of 14C-fructose uptake at 100 mM
OC[C@H]1OC(O)[C@@H](O)[C@@H](O)[C@@H]1O (some centres unmarked) [mannose]	> 50%
OC[C@H]1OC(O)[C@H](O)[C@@H](O)[C@H]1O (some centres unmarked) [galactose]	~ 21%
